pKi: −log10 of the molar value. Like-named read-outs stand apart in the source and are kept apart here.
What was measured:
human MCH1 receptor [1] = biological target: T1, human MCH1 receptor (Homo sapiens, UniProt Q99705); test: Radioligand competition binding with [3H]Compound 10, membranes of A293 cells; conditions: Table 3, A293 cell membranes, [3H]Compound 10 as radioligand, read-out: hMCH1 * Ki
Method: For binding assays, pellets of transfected cells are suspended in ice-cold buffer (20 mM Tris.HCl, 5 mM EDTA, pH 7.4) and homogenized by sonication for 7 sec. The cell lysates are centrifuged at 200×g for 5 min at 4° C. The supernatants are then centrifuged at 40,000×g for 20 min at 4° C. The resulting pellets are washed once in the homogenization buffer and suspended in binding buffer (see methods for radioligand binding). Protein concentrations are determined by the method of Bradford (1976) using bovine serum albumin as the standard. Binding assays are usually performed immediately, however it is possible to prepare membranes in batch and store frozen in liquid nitrogen for future use.
Radioligand binding assays for the MCH1 receptor were carried out using plasmid pEXJ.HR-TL231 (ATCC Accession No. 203197). Plasmid pEXJ.HR-TL231 comprises the regulatory elements necessary for expression of DNA in a mammalian cell operatively linked to DNA encoding the human MCH1 receptor so as to permit expression thereof. Plasmid pEXJ.HR-TL231 was deposited on Sep. 17, 1998, with the American Type Culture Collection (ATCC), 12301 Parklawn Drive, Rockville, Md. 20852, U.S.A. under the provisions of the Budapest Treaty for the International Recognition of the Deposit of Microorganisms for the Purposes of Patent Procedure and was accorded ATCC Accession No. 203197. […]

human GALR3 = biological target: T2, human GALR3 (Homo sapiens, UniProt O60755); test: Radioligand binding assay, cloned receptor; conditions: read-out: hGALR3 Ki
T2 construct: expressed in transfected cells
T2 sequence (O60755 1-368): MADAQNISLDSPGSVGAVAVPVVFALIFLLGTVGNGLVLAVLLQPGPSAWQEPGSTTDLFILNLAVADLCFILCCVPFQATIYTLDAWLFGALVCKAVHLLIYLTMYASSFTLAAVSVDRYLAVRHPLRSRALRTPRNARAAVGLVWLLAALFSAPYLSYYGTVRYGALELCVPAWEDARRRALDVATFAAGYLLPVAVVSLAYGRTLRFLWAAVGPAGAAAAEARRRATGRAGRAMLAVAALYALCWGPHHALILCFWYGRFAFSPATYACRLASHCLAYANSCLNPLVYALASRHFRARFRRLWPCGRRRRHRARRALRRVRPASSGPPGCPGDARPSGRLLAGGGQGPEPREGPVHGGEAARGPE
Outline: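 Membranes from transfected cells expressing the cloned receptor, prepared by sonication in 20 mM Tris.HCl, 5 mM EDTA, pH 7.4 and differential centrifugation (40,000×g pellet), were resuspended in binding buffer for radioligand binding; protein measured by Bradford assay.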

human MCH1 receptor [2] = biological target: T1, human MCH1 receptor; test: Functional assay: intracellular calcium mobilization (antagonist potency Kb); assay type: cell-based; design: expressed in transfected cells; host or cells: COS-7 cells, transient, DEAE-dextran, plasmid pEXJ.HR-TL231 (ATCC 203197)

T1 sequence (Q99705 whole entry): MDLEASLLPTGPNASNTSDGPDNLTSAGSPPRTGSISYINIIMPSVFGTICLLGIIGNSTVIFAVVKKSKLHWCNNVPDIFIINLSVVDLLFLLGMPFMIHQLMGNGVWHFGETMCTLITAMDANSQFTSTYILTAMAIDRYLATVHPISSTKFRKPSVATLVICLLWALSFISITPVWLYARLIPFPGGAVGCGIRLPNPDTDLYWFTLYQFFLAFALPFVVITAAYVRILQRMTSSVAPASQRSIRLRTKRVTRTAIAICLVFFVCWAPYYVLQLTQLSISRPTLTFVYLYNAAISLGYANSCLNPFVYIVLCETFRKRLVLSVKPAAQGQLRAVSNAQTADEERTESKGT

Substance: 2-(3,4-DIFLUOROPHENYL)4,5-DIHYDROIMIDAZOLE-1-CARBOXYLIC ACID {3-[4-PHENYL-4-(4-BROMO-5-METHYLTHIOPNEN-2-YL)]PROPYL}-AMIDE [Example 19]
- pKi (human MCH1 receptor [1]): 8.52
- pKi (human GALR3; Table 2): < 4.30
- pKi (human GALR3; Table 3): < 4.30
- Kb (human MCH1 receptor [2]; Table 1, cloned human MCH1 receptor, functional assay, read-out: Kb (nM) hMCH1): 7 nM
- Kb (human MCH1 receptor [2]; Table 2, antagonist potency at the human MCH1 receptor, read-out: hMCH1 Kb): 7 nM
- Kb (human MCH1 receptor [2]; Table 3, antagonist potency at the human MCH1 receptor, read-out: hMCH1 Kb): 7 nM
